Data published in patent publication US20220289794A1, “SYNTHETIC ANTIMICROBIAL PEPTIDES” (priority 2019, published 2022).

Columns and labels:
B. subtilis (ATCC-6633) = experiment: Broad-spectrum activity against Gram-Positive bacteria (MIC); assay type: cell-based; parameters: unit not given here
E. coli (ATCC BAA-2452) = experiment: Broad-spectrum activity against Gram-Negative bacteria (MIC); assay type: cell-based; conditions: Table 16, Gram-negative panel
B. cereus (ATCC-13061) = experiment: Broad-spectrum activity against Gram-Positive bacteria (MIC); assay type: cell-based; parameters: unit not given here
[1] = system: A. baumannii (ATCC BAA-1605); experiment: Broad-spectrum activity against Gram-Negative bacteria (MIC); assay type: cell-based; conditions: Table 16, Gram-negative panel
[2] = system: P. aeruginosa (ATCC 10145); experiment: as above; assay type: cell-based; conditions: Table 16, Gram-negative panel
[3] = system: P. aeruginosa (ATCC BAA-1744); experiment: as above; assay type: cell-based; conditions: Table 16, Gram-negative panel
[4] = system: Methicillin-resistant Staphylococcus aureus MRSA (ATCC BAA-1556); conditions: MRSA ATCC BAA-1556
S. aureus ATCC 29213 = conditions: S. aureus ATCC 29213
[5] = system: Pseudomonas aeruginosa (ATCC 27883); conditions: P. aeruginosa ATCC 27883
[6] = system: Escherichia coli (ATCC 25922); conditions: E. coli ATCC 25922
[7] = system: Klebsiella pneumoniae (ATCC BAA-1705); conditions: Table 16, Gram-negative panel
[8] = system: Enterococcus faecium ATCC 27270; conditions: E. faecium ATCC 27270
[9] = system: Enterococcus faecium ATCC 700221; conditions: E. faecium ATCC 700221
[10] = system: Klebsiella pneumoniae ATCC 13883; conditions: Table 16, Gram-negative panel
[11] = system: Enterococcus faecalis ATCC 29212; conditions: E. faecalis ATCC 29212
[12] = system: Enterococcus faecalis ATCC 51575; conditions: E. faecalis ATCC 51575
[13] = system: Streptococcus pneumoniae ATCC 49619; conditions: S. pneumoniae ATCC 49619
[14] = system: Streptococcus pneumoniae ATCC 51938; conditions: S. pneumoniae ATCC 51938

| Substance | Broad-spectrum activity B. subtilis (ATCC-6633) (B. subtilis (ATCC-6633)) | MIC E. coli (ATCC BAA-2452) (E. coli (ATCC BAA-2452)) [µg/mL] | Broad-spectrum activity B. cereus (ATCC-13061) (B. cereus (ATCC-13061)) | MIC A. baumannii (ATCC BAA-1605) [1] [µg/mL] | MIC P. aeruginosa (ATCC 10145) [2] [µg/mL] | MIC P. aeruginosa (ATCC BAA-1744) [3] [µg/mL] | MIC MRSA ATCC BAA-1556 [4] [µg/mL] | MIC S. aureus ATCC 29213 (S. aureus ATCC 29213) [µg/mL] | MIC P. aeruginosa ATCC 27883 [5] [µg/mL] | MIC E. coli ATCC 25922 [6] [µg/mL] | MIC K. pneumonia (ATCC BAA-1705) [7] [µg/mL] | Broad-spectrum activity E. faecium (ATCC 27270) [8] | Broad-spectrum activity E. faecium (ATCC 700221) [9] | MIC K. pneumonia (ATCC 13883) [10] [µg/mL] | Broad-spectrum activity E. faecalis (ATCC 29212) [11] | Broad-spectrum activity E. faecalis (ATCC 51575) [12] | Broad-spectrum activity S. pneumoniae (ATCC 49619) [13] | Broad-spectrum activity S. pneumoniae (ATCC 51938) [14] |
| --- | --- | --- | --- | --- | --- | --- | --- | --- | --- | --- | --- | --- | --- | --- | --- | --- | --- | --- |
| c[Arg-Arg-Arg-arg-Dip-Dip-Dip] [IFX-063] | 1.5 | 12.5 | 3.1 | 6.2 | 25 | 25 | 3.1 | 3.1 | 12.5 | 12.5 | 12.5 | 3.1 | 1.5 | 50 | 6.2 | 12.5 | 25 | 12.5 |
| c[arg-arg-Arg-Arg-naI-trp-naI] [IFX-138] | 3.1 | 12.5 | 6.2 | 25 | 50 | 50 | 3.1 | 1.5 | 32 | 16 | 50 | 3.1 | 6.2 | 50 | 6.2 | 6.2 | 50 | 25 |
| c[arg-Arg-Arg-Arg-Dip-Trp-Dip] [IFX-094] | 3.1 | 12.5 | 6.2 | 12.5 | 50 | 25 | 3.1 | 3.1 | 6.2 | 12.5 | 12.5 | 6.2 | 12.5 | 50 | 12.5 | 12.5 | 25 | 25 |
| c[arg-arg-arg-arg-Dip-Trp-Dip] [IFX-099] | 1.5 | 25 | 3.1 | 12.5 | 25 | 25 | 1.5 | 1.5 | 12.5 | 6.2 | 25 | 3.1 | 6.2 | 50 | 6.2 | 12.5 | 25 | 12.5 |
| c[Arg-Arg-Arg-arg-Dip-Trp-Dip] [IFX-091] | 1.5 | 12.5 | 3.1 | 12.5 | 25 | 25 | 3.1 | 3.1 | 12.5 | 12.5 | 12.5 | 3.1 | 6.2 | 50 | 6.2 | 12.5 | 50 | 12.5 |
